The target in the assay is T1, maltose binding protein (MBP) (Escherichia coli, UniProt P0AEX9).
T1 construct: resulting in an ampicillin-resistant plasmid that expresses cytoplasmic, full-length MBP; made in house
As to the kind of experiment: Titration monitored by tryptophan fluorescence peak wavelength. The settings on record: sucrose up to ∼[…] without maltose and ∼0.9 M with maltose, 37 °C, pH 7.2.

One compound from article PMC3790770 (PLoS ONE, 2013) can be followed below.

SMILES strings stand for the structures.

Experimental: Experiments were performed on a Cary 300 Fluorimeter using 200 nM MBP in 100 mM sodium phosphate buffer (pH 7.2) at 37 °C. […] Crowder titrations were conducted with multiple samples, as addition of crowding agent to concentrations reaching 300 g/L was not feasible in the same sample without large volume and MBP concentration changes.
Data were analyzed using two different models: a two-state binding model (Figure 2A), and a three-state competitive binding model (Scheme 1).
Now, [P] represented the sum of the two ligand-free species, i.e., the free protein P and the protein-crowder complex.

As to `OC[C@H]1O[C@@](CO)(O[C@H]2O[C@H](CO)[C@@H](O)[C@H](O)[C@H]2O)[C@@H](O)[C@@H]1O` [sucrose], the “binding to MBP (sucrose titration)” value is given as “no apparent 1∶1 binding to MBP”.
